Measured values taken from patent publication EP0216105A1, “Diazaphosphorines, process for their preparation and their use as pesticide” (priority 1985, dated 1987).

How the values were obtained:
Caenorhabditis elegans = experiment: In vitro nematode test; conditions: concentration at which reproduction is prevented, 7 days at 22°C; for minimal effective concentration: Caenorhabditis elegans, 168 h, read-out: Dosis effectiva
Protocol: 10-^4 g Wirkstoff wurden in 1 ml Wasser oder 0,1 ml Dimethylsulfoxid (DMSO) gelöst. Diese Lösung wurde auf eine Replica-Platte gegeben. Dazu wurden 2 ml einer E-coli-Suspension gegeben, in der man 10-20 weibliche Tiere oder Larven von Caenorhabditis elegans in 0,5 ml M9 Pufferlösung gegeben hat. Die E-coli-Suspension wurde hergestellt indem man 300 ml einer Ubernachthalter eines Uracil-bedürftigen E-coli-Stammes mit 1,8 1 steriler M 9 Pufferlösung versetzte.
Der Versuchsansatz wurde 7 Tage bei 22°C inkubiert und danach ausgewertet. Es wurde bewertet inwieweit der Wirkstoff die Vermehrung beeinträchtigt und die Konzentration angegeben bei der die Vermehrung verhindert wird.

[1] = tested on: Raupe (L5) der Art Spodoptera frugiperda; experiment: Spodoptera test (treated artificial diet discs); type: in vivo; conditions: Spodoptera frugiperda caterpillars (L5) on treated artificial diet; compared with the prior art; figures not given
From the text: (§1) • Lösungsmittel: 3 Gewichtsteile Aceton • Emulgator: 1 Gewichtsteil Alkylarylpolyglykolether
Zur Herstellung einer zweckmäßigen Wirkstoffzubereitung vermischt man 1 Gewichtsteil Wirkstoff mit der angegebenen Menge Lösungsmittel und der angegebenen Menge Emulgator und verdünnt das Konzentrat mit Wasser auf die gewünschte Konzentrationen.
Kunstfutterscheiben, die in Plastikdosen liegen, werden durch Beträufeln mit der Wirkstoffzubereitung der gewünschten Konzentration behandelt. Nach Eindringen der Lösung besetzt man die Plastikdosen mit je 1 Raupe (L5) der Art Spodoptera frugiperda, wobei je Versuchsglied 5 Wiederholungen aufgestellt werden. Nach der Verpuppung legt man die Tiere eines Versuchsglieds in eine größere Dose. Nach der gewünschten Zeit wird die Abtötung in % bestimmt. Dabei bedeutet 100 X, daß alle Tiere abgetötet wurden; 0 X bedeutet, daß keine Tiere abgetötet wurden.

[2] = tested on: Larven (L3) des Meerrettichkäfers (Phaedon cochleariae); experiment: Phaedon larvae test (treated cabbage leaves); type: in vivo; conditions: Phaedon cochleariae larvae (L3) on treated Brassica oleracea leaves; compared with the prior art; figures not given
From the text: as §1
Zur Herstellung einer zweckmäßigen Wirkstoffzubereitung vermischt man 1 Gewichtsteil Wirkstoff mit der angegebenen Menge Lösungsmittel und der angegebenen Menge Emulgator und verdünnt das.Konzentrat mit Wasser auf die gewünschte Konzentration.
Kohlpflanzen (Brassica oleracea) werden mit der Wirkstoffzubereitung der gewünschten Konzentration behandelt. Ein Blatt der behandelten Pflanze wird in eine Plastikdose gelegt und mit Larven (L3) des Meerrettichkäfers (Phaedon cochleariae) besetzt. Nach 2 und 4 Tagen wird jeweils ein weiters Blatt von derselben Pflanze für die Nachfütterung verwendet.
Nach der gewünschten Zeit wird die Abtötung in % bestimmt. Dabei bedeutet 100 X, daß alle Käferlarven abgetötet wurden.

[3] = tested on: Mückenlarven (L4) (Aedes aegypti); experiment: Aedes test (larvae in aqueous preparation); type: in vivo; conditions: 20 Aedes aegypti larvae (L4) per glass; compared with the prior art; figures not given
From the text: • Löcungcmittal: 3 Gewichtsteile Aceton • Emulgator: 1 Gewichtsteil Alkylarylpolyglykolether
Zur Herstellung einer zweckmäßigen Wirkstoffzubereitung vermischt man 1 Gawichtcteil Wirkstoff mit der angegebenen Menge Löcungcmittel und der angegebenen Menge Emulgator und verdünnt das Konzentrat mit Wasser auf die gewünschte Konzentrationen.
Man füllt die wässrigen Wirkctoffzubereitungen in Gläser und setzt anschließend 20 Mückenlarven (L4) (Aedes aegypti) in jedes Glas ein.
Nach der gewünschten Zeit wird die Abtötung in % bestimmt. Dabei bedeutet 100 X, daß alle Tiere abgetötet wurden; 0 % bedeutet, daß keine Tiere abgetötet wurden.

[4] = tested on: Musca domestica-tmultiresistent) Maden; experiment: Fly maggot development inhibition test; type: in vivo; conditions: Musca domestica maggots on treated filter paper, 14 days; compared with the prior art; figures not given
Protocol: Fliegenmaden-Entwicklungshommungstest Testtiere: Musca domestica-tmultiresistent) Maden Lösungsmittel: Aceton
2 Gewichtsteile Wirkstoff werden in 1 000 Volumenteilen Lösungsmittel aufgenommen. Die so erhaltene Lösung wird mit weiteren Lösungsmitteln auf die gewünschten Konzentrationen verdünnt.
2,5 ml Wirkstofflösung werden in eine Petrischale pipettiert. Auf dem Boden der Petrischale befindet sich ein Filterpapier mit einem Durchmesser von etwa 9,5 cm. Die Petrischale bleibt so lange offen stehen, bis das Lösungsmittel vollständig verdunstet ist. Je nach Konzentration der Wirkstofflösung ist die Menge Wirkstoff pro m^2 Filterpapier verschieden hoch. Anschließend gibt man etwa 25 Testtiere in die Petrischale und bedeckt sie mit einem Glasdeckel.
14 Tage nach Ansetzen der Versuche wird die Zahl der geschlüpften Fliegen kontrolliert. Bestimmt wird der X-Satz der Schlüpfhemmung im Vergleich zur unbehandelten Kontrolle.

[5] = tested on: Lucilia cuprina res.-Larven; experiment: Test with resistant Lucilia cuprina larvae; type: in vivo; conditions: horse meat, after 24 hours, compared with the prior art, figures not given
From the text: Test mit Lucilia cuprina resistent-Larven
• Emulgator: 35 Gewichtsteile Ethylenglykolmonomethylether • 35 Gewichtsteile Nonylphenolpolyglykolether
Zur Herstellung einer zweckmäßigen Wirkstoffzubereitung vermischt man drei Gewichtsteile Wirkstoff mit sieben Gewichtsteilen des oben angegebenen Gemisches und verdünnt das so erhaltene Konzentrat mit Wasser auf die jeweils gewünschte Konzentration.
Etwa 20 Lucilia cuprina res.-Larven werden in ein Teströhrchen gebracht, welches ca. 1 cm^3 Pferdefleisch und O,5 ml der Wirkstoffzubereitung enthält. Nach 24 Stunden wird der Abtötungsgrad bestimmt.

| Compound | minimal effective concentration (Caenorhabditis elegans) [µg/mL] | other results |
| --- | --- | --- |
| CCN1C(=O)C(C(=O)Nc2ccc(Cl)c(C(F)(F)F)c2)C(=O)N(C)P1(=O)Oc1cccc(Cl)c1 (centres unmarked) [Beispiel 57] | 10 | – |
| CCN1C(=O)C(C(=O)Nc2ccc(C(F)(F)F)cc2C(F)(F)F)C(=O)N(C)P1(=O)Oc1cccc(Cl)c1 (centres unmarked) [Beispiel 56] | 10 | – |
| Cc1cccc(OP2(=O)N(C)C(=O)C(C(=O)Nc3ccc(Cl)c(C(F)(F)F)c3)C(=O)N2C(C)C)c1 (centres unmarked) [Beispiel 65] | 10 | – |
| CN1C(=O)C(C(=O)Nc2ccc([N+](=O)[O-])cc2)C(=O)N(C)P1(=O)Oc1ccc(Cl)cc1 (centres unmarked) [Beispiel 4] | 10 | – |
| CCN1C(=O)C(C(=O)Nc2ccc(OC(F)(F)F)cc2)C(=O)N(C)P1(=O)Oc1cccc(Cl)c1 (centres unmarked) [Beispiel 59] | 10 | – |
| CN1C(=O)C(C(=O)Nc2ccc(OC(F)(F)F)cc2)C(=O)N(C)P1(=O)Oc1ccc(Cl)cc1 (centres unmarked) [Beispiel 17] | 10 | Abtötung in % [1]: überlegene Wirksamkeit gegenüber dem Stand der Technik |
| CN1C(=O)C(C(=O)Nc2ccc(OC(F)(F)C(F)F)cc2)C(=O)N(C)P1(=O)Oc1ccccc1 (centres unmarked) [Beispiel 15] | 10 | Abtötung in % [2]: überlegene Wirksamkeit gegenüber dem Stand der Technik |
| CN1C(=O)C(C(=O)Nc2ccc(S(=O)(=O)C(F)(F)F)cc2)C(=O)N(C)P1(=O)Oc1ccc(Cl)cc1 (centres unmarked) [Beispiel 26] | – | Abtötung in % [3]: überlegene Wirksamkeit gegenüber dem Stand der Technik; X-Satz der Schlüpfhemmung im Vergleich zur unbehandelten Kontrolle [4]: überlegene Wirksamkeit gegenüber dem Stand der Technik; Abtötungsgrad [5]: überlegene Wirkung gegenüber dem Stand der Technik; Dosis effectiva (Caenorhabditis elegans): 100 mg/L |
| CN1C(=O)C(C(=O)Nc2ccc(SC(F)(F)F)cc2)C(=O)N(C)P1(=O)Oc1ccccc1 (centres unmarked) [Beispiel 10] | 10 | Abtötung in % [2]: überlegene Wirksamkeit gegenüber dem Stand der Technik; Abtötung in % [1]: überlegene Wirksamkeit gegenüber dem Stand der Technik; Abtötung in % [3]: überlegene Wirksamkeit gegenüber dem Stand der Technik |
| CC(C)N1C(=O)C(C(=O)Nc2ccc(SC(F)(F)F)c(Cl)c2)C(=O)N(C)P1(=O)Oc1cccc(Cl)c1 (centres unmarked) [Beispiel 64] | 10 | – |
| COc1ccc(NC(=O)C2C(=O)N(C)P(=O)(Oc3ccc(OC)cc3)N(C)C2=O)cc1 (centres unmarked) [Beispiel 19] | 100 | – |
| CN1C(=O)C(C(=O)Nc2ccc(SC(F)(F)F)cc2)C(=O)N(C)P1(=O)Oc1cccc(Cl)c1 (centres unmarked) [Beispiel 37] | 10 | – |
| CN1C(=O)C(C(=O)Nc2ccc(OC(F)(F)F)cc2)C(=O)N(C)P1(=O)Oc1cccc(Cl)c1 (centres unmarked) [Beispiel 38] | 10 | – |
| CCN1C(=O)C(C(=O)Nc2ccc(C(F)(F)F)c(Cl)c2)C(=O)N(C)P1(=O)Oc1cccc(Cl)c1 (centres unmarked) [Beispiel 55] | 10 | – |
| CC(C)N1C(=O)C(C(=O)Nc2ccc(C(F)(F)F)c(Cl)c2)C(=O)N(C)P1(=O)Oc1cccc(Cl)c1 (centres unmarked) [Beispiel 41] | 10 | Abtötungsgrad [5]: überlegene Wirkung gegenüber dem Stand der Technik |
| CCN1C(=O)C(C(=O)Nc2ccc(SC(F)(F)F)cc2)C(=O)N(C)P1(=O)Oc1cccc(Cl)c1 (centres unmarked) [Beispiel 58] | 10 | – |
| CN1C(=O)C(C(=O)Nc2ccc(SC(F)(F)F)cc2)C(=O)N(C)P1(=O)Oc1ccc(Cl)cc1 (centres unmarked) [Beispiel 8] | – | Abtötung in % [2]: überlegene Wirksamkeit gegenüber dem Stand der Technik; Abtötung in % [3]: überlegene Wirksamkeit gegenüber dem Stand der Technik; Abtötungsgrad [5]: überlegene Wirkung gegenüber dem Stand der Technik; Dosis effectiva (Caenorhabditis elegans): 10 mg/L |

| Compound | minimal effective concentration (Caenorhabditis elegans) [µg/mL] | other results |
| --- | --- | --- |
| CN1C(=O)C(C(=O)Nc2ccccc2SC(F)(F)F)C(=O)N(C)P1(=O)Oc1ccccc1 (centres unmarked) [Beispiel 11] | 100 | – |
| CN1C(=O)C(C(=O)Nc2ccc(OC(F)(F)F)cc2)C(=O)N(C)P1(=O)Oc1ccccc1 (centres unmarked) [Beispiel 16] | 10 | Abtötung in % [2]: überlegene Wirksamkeit gegenüber dem Stand der Technik; Abtötung in % [1]: überlegene Wirksamkeit gegenüber dem Stand der Technik; Abtötung in % [3]: überlegene Wirksamkeit gegenüber dem Stand der Technik |
| CN1C(=O)C(C(=O)Nc2ccc(SC(F)(F)F)cc2)C(=O)N(C)P1(=S)Oc1ccccc1 (centres unmarked) [Beispiel 33] | 10 | Abtötungsgrad [5]: überlegene Wirkung gegenüber dem Stand der Technik |
| CCN1C(=O)C(C(=O)Nc2ccc(C(F)(F)F)c(C(F)(F)F)c2)C(=O)N(C)P1(=O)Oc1cccc(Cl)c1 (centres unmarked) [Beispiel 61] | 10 | – |
| CC(C)N1C(=O)C(C(=S)Nc2ccccc2)C(=O)N(C)P1(=O)Oc1cccc(Cl)c1 (centres unmarked) [Beispiel 62] | 100 | – |
| CN1C(=O)C(C(=O)Nc2ccc(S(=O)(=O)C(F)(F)F)cc2)C(=O)N(C)P1(=O)Oc1ccccc1 (centres unmarked) [Beispiel 13] | 10 | – |
| CN1C(=O)C(C(=O)Nc2ccc(SC(F)(F)F)cc2)C(=O)N(c2ccccc2)P1(=O)Oc1ccccc1 (centres unmarked) [Beispiel 44] | 10 | – |
| CC(C)N1C(=O)C(C(=O)Nc2ccc(C(F)(F)F)cc2C(F)(F)F)C(=O)N(Cc2ccccc2)P1(=O)Oc1cccc(Cl)c1 (centres unmarked) [Beispiel 51] | 100 | – |
| CCN1C(=O)C(C(=O)Nc2ccc(Oc3ccc(C(F)(F)F)cc3)cc2)C(=O)N(C)P1(=O)Oc1cccc(Cl)c1 (centres unmarked) [Beispiel 46] | 10 | – |
| CN1C(=O)C(C(=O)Nc2ccc(OC(F)(F)F)cc2)C(=O)N(C)P1(=S)Oc1ccc(Cl)cc1 (centres unmarked) [Beispiel 30] | 10 | Abtötung in % [1]: überlegene Wirksamkeit gegenüber dem Stand der Technik; X-Satz der Schlüpfhemmung im Vergleich zur unbehandelten Kontrolle [4]: überlegene Wirksamkeit gegenüber dem Stand der Technik |
| CN1C(=O)C(C(=O)Nc2ccc(Cl)c(C(F)(F)F)c2)C(=O)N(C)P1(=S)Oc1ccc(Cl)cc1 (centres unmarked) [Beispiel 6] | 10 | Abtötung in % [3]: überlegene Wirksamkeit gegenüber dem Stand der Technik; X-Satz der Schlüpfhemmung im Vergleich zur unbehandelten Kontrolle [4]: überlegene Wirksamkeit gegenüber dem Stand der Technik |
| Cc1cccc(OP2(=O)N(C)C(=O)C(C(=O)Nc3ccc(SC(F)(F)F)cc3)C(=O)N2C(C)C)c1 (centres unmarked) [Beispiel 54] | 10 | – |
| CN1C(=O)C(C(=O)Nc2ccc([N+](=O)[O-])cc2)C(=O)N(C)P1(=O)Oc1ccc([N+](=O)[O-])cc1 (centres unmarked) [Beispiel 18] | 100 | – |
| CC(C)N1C(=O)C(C(=O)Nc2ccc(SC(F)(F)F)cc2)C(=O)N(C)P1(=O)Oc1cccc(Cl)c1 (centres unmarked) [Beispiel 42] | 10 | – |
| COc1ccc(NC(=O)C2C(=O)N(C)P(=O)(Oc3ccc(C)cc3)N(C)C2=O)cc1 (centres unmarked) [Beispiel 20] | 10 | – |
| CN1C(=O)C(C(=O)Nc2ccc(S(=O)(=O)C(F)(F)F)cc2)C(=O)N(C)P1(=O)Oc1ccc(Cl)cc1 (centres unmarked) [Beispiel 5] | – | Dosis effectiva (Caenorhabditis elegans): 10 mg/L |
| CN1C(=O)C(C(=O)Nc2ccc(SC(F)(F)F)cc2)C(=O)N(C)P1(=S)Oc1ccc(Cl)cc1 (centres unmarked) [Beispiel 34] | 100 | Abtötung in % [1]: überlegene Wirksamkeit gegenüber dem Stand der Technik; Abtötungsgrad [5]: überlegene Wirkung gegenüber dem Stand der Technik |
